Results from ChEMBL document CHEMBL3045073, “Synthesis of -amino carbonyl derivatives of coumarin and benzofuran and evaluation of their biological activity” (Med Chem Res, 2013).
Values after ≈ are worked out from the molar mass of the structure shown. Active and inactive are the calls of the source. The rule behind the calls is not given here.

What was measured:
Staphylococcus aureus [1] = assay: Antibacterial activity against Staphylococcus aureus ATCC 25923 assessed as growth inhibition after 24 hr by serial broth dilution method
Candida albicans [2] = assay: Antifungal activity against Candida albicans MTCC227 assessed as growth inhibition after 72 hr by serial broth dilution method
Escherichia coli [3] = assay: Antibacterial activity against Escherichia coli ATCC 25922 assessed as growth inhibition at 50 mg/mL after 24 hr by agar well diffusion method; conditions: for zone of inhibition at 50000 µg/mL: ATCC 25922, 24 h, read-out: IZ
[4] = tested on: Chrysosporium keratinophilum; assay: Antifungal activity against Chrysosporium keratinophilum assessed as growth inhibition after 72 hr by serial broth dilution method; format: functional
Escherichia coli [5] = assay: Antibacterial activity against Escherichia coli ATCC 25922 assessed as growth inhibition after 24 hr by serial broth dilution method
Aspergillus flavus [6] = assay: Antifungal activity against Aspergillus flavus assessed as growth inhibition at 50 mg/mL after 72 hr by agar well diffusion method; format: functional; conditions: for zone of inhibition at 50000 µg/mL: read-out: IZ
Candida albicans [7] = assay: Antifungal activity against Candida albicans MTCC227 assessed as growth inhibition at 50 mg/mL after 72 hr by agar well diffusion method; conditions: for zone of inhibition at 50000 µg/mL: MTCC227, 72 h, read-out: IZ
Aspergillus flavus [8] = assay: Antifungal activity against Aspergillus flavus assessed as growth inhibition after 72 hr by serial broth dilution method; format: functional
[9] = tested on: Radical scavenging activity; assay: Antioxidant activity assessed as DPPH free radical scavenging activity at 100 ug/mL after 10 min UV-Vis spectrophotometric analysis relative to control; format: functional
Staphylococcus aureus [10] = assay: Antibacterial activity against Staphylococcus aureus ATCC 25923 assessed as growth inhibition at 50 mg/mL after 24 hr by agar well diffusion method; conditions: for zone of inhibition at 50000 µg/mL: ATCC 25923, 24 h, read-out: IZ
[11] = tested on: Chrysosporium keratinophilum; assay: Antifungal activity against Chrysosporium keratinophilum assessed as growth inhibition at 50 mg/mL after 72 hr by agar well diffusion method; format: functional; conditions: for zone of inhibition at 50000 µg/mL: read-out: IZ
Pseudomonas aeruginosa [12] = assay: Antibacterial activity against Pseudomonas aeruginosa ATCC 27853 assessed as growth inhibition after 24 hr by serial broth dilution method; format: functional
Pseudomonas aeruginosa [13] = assay: Antibacterial activity against Pseudomonas aeruginosa ATCC 27853 assessed as growth inhibition at 50 mg/mL after 24 hr by agar well diffusion method; format: functional; conditions: for zone of inhibition at 50000 µg/mL: ATCC 27853, 24 h, read-out: IZ
[14] = Metal chelating activity of the compound assessed as ferrous ion complex formation at 0.5 to 2 mg/mL after 10 min by spectrophotometric analysis relative to EDTA

| SMILES | MIC (Staphylococcus aureus [1]; ATCC 25923, 24 h) | MIC (Candida albicans [2]; MTCC227, 72 h) | zone of inhibition at 50000 µg/mL (Escherichia coli [3]) | MIC [4] | MIC (Escherichia coli [5]; ATCC 25922, 24 h) | zone of inhibition at 50000 µg/mL (Aspergillus flavus [6]) | zone of inhibition at 50000 µg/mL (Candida albicans [7]) | MIC (Aspergillus flavus [8]) | Activity [9] | zone of inhibition at 50000 µg/mL (Staphylococcus aureus [10]) | zone of inhibition at 50000 µg/mL [11] | MIC (Pseudomonas aeruginosa [12]; ATCC 27853, 24 h) | zone of inhibition at 50000 µg/mL (Pseudomonas aeruginosa [13]) | growth inhibition (GI) [11] | further results |
| --- | --- | --- | --- | --- | --- | --- | --- | --- | --- | --- | --- | --- | --- | --- | --- |
| O=C(CC(Nc1ccccc1)c1ccccc1)c1cc2ccccc2oc1=O (stereo unspecified) | 500 µg/mL (≈ 1350 µM) | 300 µg/mL (≈ 812 µM) | 4 mm | 550 µg/mL (≈ 1490 µM) | 500 µg/mL (≈ 1350 µM) | 4 mm | 7 mm | 450 µg/mL (≈ 1220 µM) | 25.3% | 5 mm | 3 mm | 350 µg/mL (≈ 947 µM) | 1 mm |  |  |
| Cc1ccc(C(CC(=O)c2cc3ccccc3o2)Nc2ccc(C(=O)O)cc2)cc1 (stereo unspecified) |  |  |  | inactive |  |  |  | inactive | 54.1% |  |  |  |  | inactive | MIC (Staphylococcus aureus [1]): inactive; MIC (Candida albicans [2]): inactive; growth inhibition (GI) (Escherichia coli [3]): inactive; MIC (Escherichia coli [5]): inactive; growth inhibition (GI) (Aspergillus flavus [6]): inactive; growth inhibition (GI) (Candida albicans [7]): inactive; growth inhibition (GI) (Staphylococcus aureus [10]): inactive; MIC (Pseudomonas aeruginosa [12]): inactive; growth inhibition (GI) (Pseudomonas aeruginosa [13]): inactive |
| COc1ccc(C(CC(=O)c2cc3ccccc3o2)Nc2ccccc2)cc1 (stereo unspecified) |  |  |  | inactive |  |  |  | inactive | 27.3% |  |  |  |  | inactive | MIC (Staphylococcus aureus [1]): inactive; MIC (Candida albicans [2]): inactive; growth inhibition (GI) (Escherichia coli [3]): inactive; MIC (Escherichia coli [5]): inactive; growth inhibition (GI) (Aspergillus flavus [6]): inactive; growth inhibition (GI) (Candida albicans [7]): inactive; growth inhibition (GI) (Staphylococcus aureus [10]): inactive; MIC (Pseudomonas aeruginosa [12]): inactive; growth inhibition (GI) (Pseudomonas aeruginosa [13]): inactive |
| Cc1cc(C(C)(C)C)c(O)c(C(C)(C)C)c1 |  |  |  |  |  |  |  |  | 90% |  |  |  |  |  |  |
| Cc1ccc(C(CC(=O)c2cc3ccccc3oc2=O)Nc2ccc(C(=O)O)cc2)cc1 (stereo unspecified) | 500 µg/mL (≈ 1170 µM) | 500 µg/mL (≈ 1170 µM) | 1 mm | inactive | 500 µg/mL (≈ 1170 µM) | 1 mm | 1 mm | 450 µg/mL (≈ 1050 µM) | 52.5% | 3 mm |  | 500 µg/mL (≈ 1170 µM) | 3 mm | inactive | Activity [14]: Active |
| O=C(O)c1ccc(NC(CC(=O)c2cc3ccccc3oc2=O)c2ccc([N+](=O)[O-])cc2)cc1 (stereo unspecified) | 500 µg/mL (≈ 1090 µM) | 500 µg/mL (≈ 1090 µM) | 3 mm | 350 µg/mL (≈ 763 µM) | 500 µg/mL (≈ 1090 µM) | 5 mm | 4 mm | 250 µg/mL (≈ 545 µM) | 15.3% | 3 mm | 6 mm | 430 µg/mL (≈ 938 µM) | 6 mm |  |  |
| O=C(O)c1ccc(NC(CC(=O)c2cc3ccccc3oc2=O)c2ccc(F)cc2)cc1 (stereo unspecified) | 120 µg/mL (≈ 278 µM) | 100 µg/mL (≈ 232 µM) | 12 mm | 200 µg/mL (≈ 464 µM) | 100 µg/mL (≈ 232 µM) | 10 mm | 18 mm | 230 µg/mL (≈ 533 µM) | 35.2% | 10 mm | 12 mm | 100 µg/mL (≈ 232 µM) | 12 mm |  |  |
| O=C(O)c1ccc(NC(CC(=O)c2cc3ccccc3oc2=O)c2ccc(Cl)cc2)cc1 (stereo unspecified) | 50 µg/mL (≈ 112 µM) | 50 µg/mL (≈ 112 µM) | 13 mm | 40 µg/mL (≈ 89.3 µM) | 50 µg/mL (≈ 112 µM) | 11 mm | 19 mm | 40 µg/mL (≈ 89.3 µM) | 34.7% | 11 mm | 15 mm | 40 µg/mL (≈ 89.3 µM) | 13 mm |  |  |
| COc1ccc(C(CC(=O)c2cc3ccccc3oc2=O)Nc2ccc(C(=O)O)cc2)cc1 (stereo unspecified) |  |  |  | inactive |  |  |  | inactive | 18.1% |  |  |  |  | inactive | MIC (Staphylococcus aureus [1]): inactive; MIC (Candida albicans [2]): inactive; growth inhibition (GI) (Escherichia coli [3]): inactive; MIC (Escherichia coli [5]): inactive; growth inhibition (GI) (Aspergillus flavus [6]): inactive; growth inhibition (GI) (Candida albicans [7]): inactive; growth inhibition (GI) (Staphylococcus aureus [10]): inactive; MIC (Pseudomonas aeruginosa [12]): inactive; growth inhibition (GI) (Pseudomonas aeruginosa [13]): inactive |
| O=C(CC(Nc1ccccc1)c1ccccc1)c1cc2ccccc2o1 (stereo unspecified) | 500 µg/mL (≈ 1460 µM) | 500 µg/mL (≈ 1460 µM) | 1 mm | 500 µg/mL (≈ 1460 µM) | 500 µg/mL (≈ 1460 µM) | 2 mm | 2 mm | 500 µg/mL (≈ 1460 µM) | 28.7% | 1 mm | 1 mm | 500 µg/mL (≈ 1460 µM) | 1 mm |  |  |
| COc1ccc(C(CC(=O)c2cc3ccccc3o2)Nc2ccc(C(=O)O)cc2)cc1 (stereo unspecified) | 500 µg/mL (≈ 1200 µM) |  | 3 mm | 500 µg/mL (≈ 1200 µM) | 500 µg/mL (≈ 1200 µM) | 1 mm |  | 500 µg/mL (≈ 1200 µM) | 14.2% | 1 mm | 2 mm | 500 µg/mL (≈ 1200 µM) | 1 mm |  | MIC (Candida albicans [2]): inactive; growth inhibition (GI) (Candida albicans [7]): inactive |
| O=C(O)c1ccc(NC(CC(=O)c2cc3ccccc3o2)c2ccc([N+](=O)[O-])cc2)cc1 (stereo unspecified) | 400 µg/mL (≈ 929 µM) | 450 µg/mL (≈ 1050 µM) | 3 mm | 500 µg/mL (≈ 1160 µM) | 500 µg/mL (≈ 1160 µM) | 3 mm | 2 mm | 550 µg/mL (≈ 1280 µM) | 29.1% | 3 mm | 2 mm | 500 µg/mL (≈ 1160 µM) | 3 mm |  |  |
| CN(C)c1ccc(C(CC(=O)c2cc3ccccc3oc2=O)Nc2ccc(C(=O)O)cc2)cc1 (stereo unspecified) | 550 µg/mL (≈ 1200 µM) | 500 µg/mL (≈ 1100 µM) | 3 mm | inactive | 500 µg/mL (≈ 1100 µM) | 1 mm | 1 mm | 450 µg/mL (≈ 986 µM) | 12.3% | 2 mm |  | 400 µg/mL (≈ 876 µM) | 3 mm | inactive |  |
| O=C(O)c1ccc(NC(CC(=O)c2cc3ccccc3o2)c2ccc(Cl)cc2)cc1 (stereo unspecified) | 130 µg/mL (≈ 310 µM) | 50 µg/mL (≈ 119 µM) | 9 mm | 40 µg/mL (≈ 95.3 µM) | 120 µg/mL (≈ 286 µM) | 7 mm | 17 mm | 40 µg/mL (≈ 95.3 µM) | 31.2% | 8 mm | 13 mm | 140 µg/mL (≈ 333 µM) | 7 mm |  |  |
